Patent US12383753B2, “Method and system of sensitizing cancer cells to chemical treatment by plasma based activation” (The George Washington University, priority 2018, dated 2025)
“Also recorded” adds a separate entry of the source.

Legend:
[1] = system: human pancreas adenocarcinoma (PA-TU-8988T) cells; assay: MTT cell viability assay of cancer cells with or without CAP activation, followed by reactive species treatment; type: cell-based
[2] = system: human pancreas adenocarcinoma (PA-TU-8988T) cells; assay: as above; type: cell-based; details: for cell viability: 10 μM H2O2 on CAP-activated cells, 12.5 kHz, 1.53 lpm
Protocol: In this example, human pancreas adenocarcinoma (PA-TU-8988T) cells were used in conjunction with a Dulbecco's modified Eagle's medium (DMEM, 11965-118) from Life Technologies. The DMEM was mixed with 1% (v/v) antibiotic (penicillin and streptomycin) solution (Life Technologies). The media used in the cell culture were composed of DMEM supplemented with 10% (v/v) fetal bovine serum (ThermoFisher Scientific). The cells were cultured in a 96-well plate (61406-081, Corning). 100 μL of the cells-harvesting solution (3×10^4 cells/mL) were seeded in each well. Cancer cells were grown for 1 day under the standard culture condition (a humidified, 37 C, 5% CO2 environment). The media used to culture cells overnight were removed before any experiments were performed.
In the example system 200 in FIG. 2A, basic protocols were provided to determine the activation state of cancer cells. To perform the CAP sensitivity treatment, each well of the well plate 230 was filled with a 50 μL DMEM solution with the growing cells. Each of the cells in the 96-well plate 230 was treated by the CAP jet from the CAP jet device 202 vertically. The gap between the bottom of the 96-well plate 230 and the CAP source is 3 cm in this example. After the CAP treatment, 50 μL of new DMEM was transferred to replace the medium in the wells of the 96-well plate 230 treated by the CAP jet device 202.
As a result, cancer cells in the activation state were obtained when the CAP sensitivity treatment time was longer than 20 seconds. Reactive treatment was applied in the form of new H2O2 − DMEM added to the cells in the well plate 230. To make the new H2O2 − DMEM, 9.8 M H2O2 standard solution (Sigma-Aldrich, 216763) was added to DMEM with a designed concentration. Then, H2O2 − DMEM or NO2 − DMEM was transferred to affect the activated cancer cells in the designed experiments. The cell viability was measured by using MTT assay according to the standard protocols provided by the manufacturer (Sigma-Aldrich, M2128). The 96-well plate 230 was read by an H1 microplate reader manufactured by […] at an absorbance of 570 nm after shaking in the reader for 30 seconds. To perform the data analysis, the measured absorbance at 570 nm was processed to be a relative cell viability by the division of absorbance between the experimental group and the control group.
The CAP treatment and removal of the medium containing reactive species is the basic strategy to obtain the cancer cells in the activated state. Thus, the process for increasing the effectiveness of treating cancer cells with a follow up reactive treatment is as follows. The direct CAP sensitivity treatment (1 min) was first performed on each well of the 96-well plate 230. The cancer cells in the wells were immersed in 50 μL of DMEM. The DMEM was quickly removed (less than a minute) after the CAP sensitivity treatment. Then, the CAP-activated (treated) cancer cells were obtained. The cytotoxicity of H2O2 (10 μM) treatment on the CAP-treated (activated) cancer cells were compared with that on cancer cells without the CAP sensitivity treatment. The H2O2-containing DMEM was made by adding H2O2 standard solution (Sigma-Aldrich, 216763) in DMEM with a designed concentration (10 μM). All cells were cultured for 3 days before the final cell viability assay using a MTT assay (Sigma-Aldrich, M2128). The cell viability assay was performed following the standard protocols provided by the manufacturer. Finally, the absorbance at 570 nm was processed to be a relative cell viability (fold) by the division of absorbance between the experimental group and the control group. In the control group, cancer cells were just cultured in the untreated DMEM.

[3] = cited from earlier work
[4] = low concentration, CAP-activated cancer cells
[5] = low concentration, same cancer cells without activation

Row | SMILES | killing effect ([1]; 22 μM H2O2, cells activated by CAP (bars 414 and 444)) [%] | killing effect ([1]; 22 μM H2O2, cells without activation (bars 416 and 446)) | killing of cancer cells (in words) ([1]; 22 μM H2O2-DMEM, cells activated by CAP treatment) | inhibition on the cell viability (in words) ([1]; 22 μM H2O2-DMEM, cells without CAP treatment) | killing effect (in words) ([1]; H2O2 15 μM and 22 μM, CAP-activated cells) | killing effect (in words) ([1]; H2O2-DMEM 15 μM and 22 μM, cells without activation) | killing effect (in words) ([2]; 10 μM H2O2, CAP-activated cells) | killing effect (in words) ([2]; 10 μM H2O2, cells without CAP treatment (activation)) | cell viability ([2]; discharge voltage 3.15 kV) [fold] | cell viability ([2]; discharge voltage 3.78 kV) [fold] | cell viability ([2]; discharge voltage 4.67 kV) [fold] | effect on cell viability (in words) ([2]; H2O2 DMEM applied two hours after CAP treatment) | killing effect (in words) [2, 4] | killing effect (in words) [2, 5] | concentration range found in CSF [3] [µM]
1 | OO [H2O2] | ~50 | about 10% | strongly kill | very small inhibition | strong killing effect | did not cause strong killing effect | significant killing effect | will not cause a killing effect; also recorded: does not cause a killing effect | 0.73 | 0.38 | 0.71 | does not have any effect on cell viability | noticeable killing effect | will not cause significant killing effect | –
2 | O=NO [NO2 −] | – | – | – | – | – | – | – | – | – | – | – | – | noticeable killing effect | will not cause significant killing effect | –
3 | Cn1nnc2c(C(N)=O)ncn2c1=O [TMZ, Temozolomide] | – | – | – | – | – | – | – | – | – | – | – | – | – | – | 10 to 25
